Results published in patent publication US12589143B2, “Human anti-PD-L1 peptide vaccines and methods of their use” (priority 2019, dated 2026).
Where “and” joins values, the source holds several entries; their conditions need not be identical. Equal entries are not always repeated. Where no end group is shown, it is not given here.

Tested on: MVF-PD-L1 peptide immunogen
Assay: Immunogenicity in Balb/c mice, experiment 1 (CT26 WT): ELISA of sera vs each MVF-PD-L1 peptide immunogen
Format: in vivo
Conditions: for Immunogenicity (titers) 1′ Conc. 1:: Balb/c mice
Protocol: Immunogenicity of MVF-PD-L1 B-cell epitopes. New Zealand White rabbits were immunized with 1 mg of each MVF-peptide immunogens dissolved in dd H2O emulsified (1:1) in Montanide ISA 720 vehicle (Seppic) with 333 μg of N-acetylglucosamine-3yl-acetyl-1-alanyl-d-isoglutamine (nor-MDP). Rabbits were boosted with the same doses at 3-week's intervals. Blood was collected via the central auricular artery in rabbits. Blood was collected weekly (1Y+3, 2Y+1, 2Y+2,2Y+3, 3Y+1, 3Y+2 and sera tested for antibody titers by ELISA using the immunogens MVF-PD-L1 peptides. Sera (terminal) from rabbit (3Y+3) immunized with MVF-PD-1 peptide immunogens were tested individually versus the immunogen by ELISA. 200 ng/well peptide were used in duplicates to coat the ELISA plates. Titers are defined as the highest dilution of sera with an absorbance value of 0.2 after subtracting the blank.
FIGS. 5A, 5B, 5C, and 5D show the experimental scheme to test the immunization with PD-L1 in Balb/c mice. […] Balb/c mice 6-8 weeks old, were immunized with MVF-peptide immunogens emulsified in ISA 720 with nor-MDP three times and three weeks apart. Mice were immunized with MVF-PD-L1 vaccine constructs [PD-L1(36-53), PD-L1(50-67), PD-L1(95-112), PD-L1(130-147)] prior to tumor challenge. Blood was collected weekly and sera tested for antibody titers by ELISA. Two weeks after the third immunization (3Y), the mice were engrafted with CT26 WT tumor cells 10^5 per mouse Control mice were treated twice weekly with PBS as negative control and twice weekly with anti-mPD-L1 mAb (10F.9G2) as positive control starting 2 days after tumor challenge. Tumor growths were observed twice weekly and measured by calipers.
Immunogenicity of MVF-PD-L1 peptides in BALB/c mice immunized with various peptide constructs. Sera collected weekly were tittered against each individual MVF-PD-L1 peptide immunogen. The Pink bar refers to titers versus PD-L1 130 and the red bar refers to titers versus PD-1 (92-110).
In order to verify the efficacy of the PD-L1 epitope vaccines in vivo in the CT26 carcinoma cell line, Balb/c mice (10 mice/group) were immunized with 100 μg each of MVF-PD-L1 (36-53), MVF-PD-L1 (50-67), MVF-PD-L1 (95-112) and MVF-PD-L1 (130-147) emulsified with nor-MDP and Montanide 720 (1:1 ratio) SCHEME 1A (FIG. 5A). As detailed in SCHEME 1A-D (FIGS. 5A, 5B, 5C, and 5D), mice were immunized 3 times at 3 weeks intervals. […] All PD-L1 epitopes elicited high titers of PD-L1 anti-peptide antibodies by ELISA. […] We also investigated the combination of PD-1(92-110) with PD-L1-130-147.
For each peptide, vaccine antibodies were raised in New Zealand white rabbits, purchased from Charles River Laboratories (Wilmington, MA, USA). Rabbits were immunized with 1 mg of MVF chimeric peptide emulsified in Montanide ISA 720 (Seppic, Paris, France) and boosted 3 times at three week intervals. For mouse experiments, mice, 6-8 weeks old, were immunized with 0.1 mg of peptide emulsified in ISA720 (1:1 ratio). Mice were boosted with the respective doses at 3-week intervals. Blood was then collected and sera were tested for antibody titers. Sera were collected weekly and peptide vaccine antibodies were purified by affinity chromatography using a protein A/G column and the concentration was measured using Spectrophometer. All experiments were performed in accordance with the U.S. Public Health Service Policy on Humane Care and Use of Laboratory animals and approved by the Ohio State University Institutional Animals Care and Use Committee, detailed in the accepted protocol.
6-8 weeks old BALB/c mice (Charles River, Wilmington, MA) were used as standard animal models. Mouse CT26 colon carcinoma cell line was purchased from American Type Culture Collection Cells and were regularly cultured in RPMI1640 medium containing 10% FBS. CT26/HER2 cells were kindly provided by M. Penichet. Vaccines were dissolved in sterile water and emulsified in Montanide ISA 720 (1:1). […]

KLLSLIKGVIVHRLEGVEGPSLFVHGEEDLKVQHSSYRQR (KLLSLIKGVIVHRLEGVEGPSLFVHGEEDLKVQHSSYRQR-NH2) [PD-L1(50)]
Immunogenicity (titers) 1′ Conc. 1: (bleed 1Y + 3): 6400 | Immunogenicity (titers) 1′ Conc. 1: (bleed 2Y + 1): 12800 | Immunogenicity (titers) 1′ Conc. 1: (bleed 2Y + 2): 12800 | Immunogenicity (titers) 1′ Conc. 1: (bleed 2Y + 3): 12800 | Immunogenicity (titers) 1′ Conc. 1: (bleed 3Y + 1): 128000 | Immunogenicity (titers) 1′ Conc. 1: (bleed 3Y + 2): 128000 | Immunogenicity (titers) 1′ Conc. 1: (bleed 3Y + 3): 128000 | ELISA absorbance of sera (bleed 1Y + 3 (1to100), dilution 100, bleed 1Y + 3): 1.459 and 1.424 | ELISA absorbance of sera (bleed 1Y + 3 (1to100), dilution 200, bleed 1Y + 3): 1.338 and 1.282 | ELISA absorbance of sera (bleed 1Y + 3 (1to100), dilution 400, bleed 1Y + 3): 1.131 and 1.099 | ELISA absorbance of sera (bleed 1Y + 3 (1to100), dilution 800, bleed 1Y + 3): 0.878 and 0.852 | ELISA absorbance of sera (bleed 1Y + 3 (1to100), dilution 1,600, bleed 1Y + 3): 0.639 and 0.588 | ELISA absorbance of sera (bleed 1Y + 3 (1to100), dilution 3,200, bleed 1Y + 3): 0.398 and 0.365 | ELISA absorbance of sera (bleed 1Y + 3 (1to100), dilution 6,400, bleed 1Y + 3): 0.239 and 0.213 | ELISA absorbance of sera (bleed 1Y + 3 (1to100), dilution 12,800, bleed 1Y + 3): 0.143 and 0.129 | ELISA absorbance of sera (bleed 2Y + 1 (1to100), dilution 100, bleed 2Y + 1): 1.243 and 1.292 | ELISA absorbance of sera (bleed 2Y + 1 (1to100), dilution 200, bleed 2Y + 1): 1.279 and 1.274 | ELISA absorbance of sera (bleed 2Y + 1 (1to100), dilution 400, bleed 2Y + 1): 1.241 and 1.170 | ELISA absorbance of sera (bleed 2Y + 1 (1to100), dilution 800, bleed 2Y + 1): 1.127 and 1.002 | ELISA absorbance of sera (bleed 2Y + 1 (1to100), dilution 1,600, bleed 2Y + 1): 0.923 and 0.887 | ELISA absorbance of sera (bleed 2Y + 1 (1to100), dilution 3,200, bleed 2Y + 1): 0.721 and 0.666 | ELISA absorbance of sera (bleed 2Y + 1 (1to100), dilution 6,400, bleed 2Y + 1): 0.480 and 0.471 | ELISA absorbance of sera (bleed 2Y + 1 (1to100), dilution 12,800, bleed 2Y + 1): 0.332 and 0.274 | ELISA absorbance of sera (bleed 2Y + 2 (1to100), dilution 100): 1.298 and 1.343 | ELISA absorbance of sera (bleed 2Y + 2 (1to100), dilution 200): 1.310 and 1.286 | ELISA absorbance of sera (bleed 2Y + 2 (1to100), dilution 400): 1.241 and 1.190 | ELISA absorbance of sera (bleed 2Y + 2 (1to100), dilution 800): 1.144 and 1.093 | ELISA absorbance of sera (bleed 2Y + 2 (1to100), dilution 1,600): 0.964 and 0.893 | ELISA absorbance of sera (bleed 2Y + 2 (1to100), dilution 3,200): 0.741 and 0.670 | ELISA absorbance of sera (bleed 2Y + 2 (1to100), dilution 6,400): 0.519 and 0.487 | ELISA absorbance of sera (bleed 2Y + 3 (1to1k), dilution 100): 1.054 and 1.076 | ELISA absorbance of sera (bleed 2Y + 3 (1to1k), dilution 200): 1.008 and 1.012 | ELISA absorbance of sera (bleed 2Y + 3 (1to1k), dilution 400): 0.952 and 0.915 | ELISA absorbance of sera (bleed 2Y + 3 (1to1k), dilution 800): 0.827 and 0.819 | ELISA absorbance of sera (bleed 2Y + 3 (1to1k), dilution 1,600): 0.708 and 0.703 | ELISA absorbance of sera (bleed 2Y + 3 (1to1k), dilution 3,200): 0.534 and 0.514 | ELISA absorbance of sera (bleed 2Y + 3 (1to1k), dilution 6,400): 0.351 and 0.332 | ELISA absorbance of sera (bleed 3Y + 1 (1to1k), dilution 100, bleed 3Y + 1): 1.191 and 1.215 | ELISA absorbance of sera (bleed 3Y + 1 (1to1k), dilution 200, bleed 3Y + 1): 1.138 and 1.143 | ELISA absorbance of sera (bleed 3Y + 1 (1to1k), dilution 400, bleed 3Y + 1): 1.076 and 1.034 | ELISA absorbance of sera (bleed 3Y + 1 (1to1k), dilution 800, bleed 3Y + 1): 0.935 and 0.925 | ELISA absorbance of sera (bleed 3Y + 1 (1to1k), dilution 1,600, bleed 3Y + 1): 0.800 and 0.794 | ELISA absorbance of sera (bleed 3Y + 1 (1to1k), dilution 3,200, bleed 3Y + 1): 0.603 and 0.581 | ELISA absorbance of sera (bleed 3Y + 1 (1to1k), dilution 6,400, bleed 3Y + 1): 0.397 and 0.375 | ELISA absorbance of sera (bleed 3Y + 2 (1to1k), dilution 100, bleed 3Y + 2): 1.608 and 1.586 | ELISA absorbance of sera (bleed 3Y + 2 (1to1k), dilution 200, bleed 3Y + 2): 1.503 and 1.479 | ELISA absorbance of sera (bleed 3Y + 2 (1to1k), dilution 400, bleed 3Y + 2): 1.384 and 1.401 | ELISA absorbance of sera (bleed 3Y + 2 (1to1k), dilution 800, bleed 3Y + 2): 1.185 and 1.213 | ELISA absorbance of sera (bleed 3Y + 2 (1to1k), dilution 1,600, bleed 3Y + 2): 0.961 and 0.959 | ELISA absorbance of sera (bleed 3Y + 2 (1to1k), dilution 3,200, bleed 3Y + 2): 0.684 and 0.694 | ELISA absorbance of sera (bleed 3Y + 2 (1to1k), dilution 6,400, bleed 3Y + 2): 0.462 | ELISA absorbance of sera (bleed 3Y + 3 (1to1k), dilution 100, bleed 3Y + 3): 1.740 and 1.779 | ELISA absorbance of sera (bleed 3Y + 3 (1to1k), dilution 200, bleed 3Y + 3): 1.596 and 1.638 | ELISA absorbance of sera (bleed 3Y + 3 (1to1k), dilution 400, bleed 3Y + 3): 1.445 and 1.469 | ELISA absorbance of sera (bleed 3Y + 3 (1to1k), dilution 800, bleed 3Y + 3): 1.181 and 1.217 | ELISA absorbance of sera (bleed 3Y + 3 (1to1k), dilution 1,600, bleed 3Y + 3): 0.867 and 0.967 | ELISA absorbance of sera (bleed 3Y + 3 (1to1k), dilution 3,200, bleed 3Y + 3): 0.621 and 0.629 | ELISA absorbance of sera (bleed 3Y + 3 (1to1k), dilution 6,400, bleed 3Y + 3): 0.359
